The subject of data set [1] is Caco-2 Host Cells. In words: Host cell toxicity assay by LDH release. The data set is classed as cell-based, human. The method, then:
Host cell toxicity assay was performed by measuring the release of lactate dehydrogenase (LDH) in the medium using a CYTOTOX 96 Non-Radioactive Cytotoxicity Assay kit (Promega, Madison, Wis.). Toxicity was therefore classified as non toxic 0-5% LDH release and mild toxicity 5-10% LDH release (ref).
In general terms: Release of lactate dehydrogenase indicates damage to the cell membrane.

The test system of data set [2] is panel of organisms in stationary growth phase. The settings on record: cited from earlier work.
The subject of data set [3] is C. parvum sporozoites. Description: Effect of PLA2 on C. parvum sporozoite infectivity for Caco-2 monolayers. The data set is classed as cell-based, Cryptosporidium parvum. The method, then:
This experiment describes the effects of PLA2 on sporozoite infectivity. Briefly, sporozoites were incubated in an isotonic saline solution (37° C., 30 min) with a range of concentrations of PLA2 isolated from honey bee venom (Sigma-Aldrich Corp., St. Louis, Mo., 1.5 U/μg protein). Control sporozoites were identically incubated in buffer containing concentration-matched BSA but no PLA2. Sporozoites were then washed in medium and inoculated onto replicate Caco-2 human intestinal epithelial cell monolayers. 24 h later, infection was quantified in test and control monolayers by immunofluorescence assay as described herein and the mean percent reduction of infection calculated. […] Percent viability of Caco-2 cells following exposure to PLA2-treated sporozoites (86%) was similar to that of uninoculated control cells (91%) at 24 hrs, as determined by trypan blue dye exclusion. […]
For this assay, isolated sporozoites are incubated (15 min, 37° C.) with an individual biocide in isotonic buffer over a range of concentrations that would theoretically be achievable at the sporozoite surface by targeted delivery as a MAb-biocide fusion protein. […] In parallel, viability of control sporozoites after incubation with the selected biocide concentrations is determined by fluorescein diacetate assay. […] Samples are then processed and evaluated as described herein. […]

Data set [4] relates to Caco-2 cells. In words: Caco-2 cell viability by trypan blue dye exclusion. The data set is classed as cell-based, human. The settings on record: following exposure to PLA2-treated sporozoites, 24 hrs. As to the method: This experiment describes the effects of PLA2 on sporozoite infectivity. Briefly, sporozoites were incubated in an isotonic saline solution (37° C., 30 min) with a range of concentrations of PLA2 isolated from honey bee venom (Sigma-Aldrich Corp., St. Louis, Mo., 1.5 U/μg protein). Control sporozoites were identically incubated in buffer containing concentration-matched BSA but no PLA2. Sporozoites were then washed in medium and inoculated onto replicate Caco-2 human intestinal epithelial cell monolayers. 24 h later, infection was quantified in test and control monolayers by immunofluorescence assay as described herein and the mean percent reduction of infection calculated. […] Percent viability of Caco-2 cells following exposure to PLA2-treated sporozoites (86%) was similar to that of uninoculated control cells (91%) at 24 hrs, as determined by trypan blue dye exclusion. […] Through fusion of PLA2 to a monoclonal antibody with a high affinity for sporozoites, such as 1E10 or 4H9, lethal concentrations of biocide are deliverable to the sporozoite surface with relatively low amounts of biocide being used.

The conditions of data set [5]: read-out: affinity constant (Km) for substrate; cited from earlier work.

Here are results for eleven compounds from patent US20080274095A1, “Biocides” (priority 2004, published 2008).

Ends that are not written are not given here.

Turning to `CC[C@H](C)[C@H](NC(=O)[C@H](CCCCN)NC(=O)[C@H](CCC(=O)O)NC(=O)[C@H](CCCCN)NC(=O)[C@H](CO)NC(=O)[C@H](CCCCN)NC(=O)[C@H](CCCNC(=N)N)NC(=O)[C@H](Cc1ccccc1)NC(=O)[C@H](Cc1ccccc1)NC(=O)[C@H](CC(=O)O)NC(=O)CNC(=O)[C@H](CC(C)C)NC(=O)[C@@H](N)CC(C)C)C(=O)NCC(=O)N[C@@H](CCCCN)C(=O)N[C@@H](CCC(=O)O)C(=O)N[C@@H](Cc1ccccc1)C(=O)N[C@@H](CCCCN)C(=O)N[C@@H](CCCNC(=N)N)C(=O)N[C@H](C(=O)N[C@H](C(=O)N[C@@H](CCC(N)=O)C(=O)N[C@@H](CCCNC(=N)N)C(=O)N[C@H](C(=O)N[C@@H](CCCCN)C(=O)N[C@@H](CC(=O)O)C(=O)N[C@@H](Cc1ccccc1)C(=O)N[C@@H](CC(C)C)C(=O)N[C@@H](CCCNC(=N)N)C(=O)N[C@@H](CC(N)=O)C(=O)N[C@@H](CC(C)C)C(=O)N[C@H](C(=O)N1CCC[C@H]1C(=O)N[C@@H](CCCNC(=N)N)C(=O)N[C@H](C(=O)N[C@@H](CCC(=O)O)C(=O)N[C@@H](CO)C(=O)O)[C@@H](C)O)C(C)C)[C@@H](C)CC)C(C)C)[C@@H](C)CC` [CAT, cathelicidin], the “% LDH release” value in data set [1] (10 μg/ml) amounted to 1.6 ± 0.3 %; in data set [1] (100 μg/ml), 5.6 ± 0.9 %.

Consider “HNP-1: human neutrophil defensin, SEQ ID NO 38”, for which the “antimicrobial properties relative to other defensins” value in data set [2] was “most potent antimicrobial properties”. On to “NP-1: rabbit neutrophil defensin, SEQ ID NO 42 (VVCACRRALCLPRERRAGFCRIRGRIHPLCCRR)”, for which, in data set [2], the “antimicrobial properties relative to other defensins” value is “most potent antimicrobial properties”. Consider “b-defensin 1 (DHYNCVSSGGQCLYSACPIFTKIQGTCYRGKAKCCK; ends and bridges not checked; cysteine pairing not given here; UniProt P60022 33-68, looked up) [βD1, Peptides international]”, for which the “% LDH release” value in data set [1] (10 μg/ml) is 0.8 ± 1.0%; in data set [1] (100 μg/ml), 2.3 ± 2.1%. The matching figures for b-defensin 2 [βD2]: −0.9 ± 0.5% and 5.3 ± 1.5 %. Turning to bee-venom phospholipase A2 [PLA2], in data set [1] (100 μg/ml), the “% LDH release” value came to 0.7 ± 0.7%. For the same compound, the “concentration effective in neutralization” value in data set [3] (preliminary data) is less than 0.02 units/ml. The “concentration achieving highly significant reduction of sporozoite infectivity” value in data set [3] (sporozoites incubated 37° C., 30 min with bee venom PLA2, Caco-2 monolayers, 24 h, P<0.0005) is recorded as no more than 0.014 U/ml. Moreover, the “Percent viability of Caco-2 cells” value in data set [4] came to 86%. On to indolicidin, for which the “% LDH release” value is given as 0.9 ± 0.7% in data set [1] (10 μg/ml) and 8.3 ± 3.5 % in data set [1] (100 μg/ml). Turning to lactoferricin B [LFB], the “% LDH release” value in data set [1] (10 μg/ml) is listed as 3.7 ± 2.3%; in data set [1] (100 μg/ml), 2.6 ± 2.0%.

By Km is commonly meant the substrate concentration at which the rate is half of its maximum. For the compound lysozyme [LYZ], the “% LDH release” value in data set [1] (100 μg/ml) is listed as −1.9 ± 1.3%. Besides, the Michaelis-Menten constant (Km) in data set [5] is roughly 1000 µM.

With “phospho-inositol specific phospholipase C [PI-PLC]”, in data set [1] (100 μg/ml), the “% LDH release” value is −1.4 ± 0.9%. Turning to phospholipase A2, the Km in data set [5] is roughly 100 µM.
